# Data from US5130425A, “Spiro-lactams and analogs thereof useful as aldose reductase inhibitors” (American Home Products Corporation, priority 1991, dated 1992).
# Columns and labels:
# [1] = system: galactitol (dulcitol) accumulation in tissues of galactosemic rats; assay: Galactosemic rat test: lowering of galactitol (dulcitol) accumulation in lens, sciatic nerve and diaphragm; format: in vivo, rat (Sprague-Dawley, male); set-up: key to % Lowering Galactitol Accumulation In vivo, L: NS: not significant; settings: 4 days, vs untreated galactosemic rats; for % Lowering Galactitol Accumulation In vivo, D: diaphragm; for % Lowering Galactitol Accumulation In vivo, L: lens
# From the text: The aldose reductase inhibiting property of the compounds of this invention and the utilization of the compounds in preventing, diminishing and alleviating diabetic complications are demonstrable in experiments using galactosemic rats, see Dvornik et al., Science, 182, 1146 (1973). Such experiments are exemplified hereinbelow after the listing of the following general comments pertaining to these experiments:
# (a) Four or more groups of six male rats, 50-70 g, Sprague-Dawley strain, were used. The first group, the control group, was fed a mixture of laboratory chow (rodent Laboratory Chow, Purina) and glucose at 20% (w/w %) concentration. An untreated galactosemic group was fed a similar diet in which galactose was substituted for glucose. The third group was fed a diet prepared by mixing a given amount of the test compound with the galactose containing diet. The concentration of galactose in the diet of the treated groups was the same as that for the untreated galactosemic group.
# (b) After four days, the animals were killed by euthanization. Both the lens and sciatic nerve were removed, weighed and stored frozen for polyol determination.
# (c) The polyol determination was performed by a modification of the procedure of M. Kraml and L. Cosyns, Clin. Biochem., 2,373 (1969). Only two minor reagent changes were made: (a) the rinsing mixture was an aqueous 5% (w/v) trichloroacetic acid solution and (b) the stock solution was prepared by dissolving 25 mg of dulcitol in 100 mL of an aqueous trichloroacetic acid solution. [N.B.: For each experiment the average value found in the tissue from rats fed the glucose diet was subtracted from the individual values found in the corresponding tissue in galactose-fed rats to obtain the amount of polyol accumulated.] The aldose reductase inhibiting effects of the compounds of formula (I) were also tested by employing an in vitro testing procedure similar to that described by S. Hayman and J. H. Kinoshita, J. Biol. Chem., 240, 877 (1965). In the present case the procedure of Hayman and Kinoshita was modified in that the final chromatography step was omitted in the preparation of the enzyme from bovine lens.
# The figures under L, N, and D represent the percentage decrease of dulcitol accumulation in the tissues of the lens, sciatic nerve, and diaphragm, respectively, for treated rats as compared to untreated rats.
# aldose reductase = target: T1, aldose reductase (Bos taurus, UniProt P16116); assay: In vitro aldose reductase inhibition (modified procedure of Hayman and Kinoshita, enzyme from bovine lens); format: biochemical
# T1 construct: preparation of the enzyme from bovine lens; from tissue; host or cells: bovine lens
# Description: Only two minor reagent changes were made: (a) the rinsing mixture was an aqueous 5% (w/v) trichloroacetic acid solution and (b) the stock solution was prepared by dissolving 25 mg of dulcitol in 100 mL of an aqueous trichloroacetic acid solution. [N.B.: For each experiment the average value found in the tissue from rats fed the glucose diet was subtracted from the individual values found in the corresponding tissue in galactose-fed rats to obtain the amount of polyol accumulated.] […] In the present case the procedure of Hayman and Kinoshita was modified in that the final chromatography step was omitted in the preparation of the enzyme from bovine lens.
# [2] = column headed 10^5 (concentration unit not given)
# [3] = column headed 10^-6 (concentration unit not given)
# [4] = column headed 10^-7 (concentration unit not given)
SMILES,"% Lowering Galactitol Accumulation In vivo, D ([1]; 11 mg/kg/day in diet) [%]","% Lowering Galactitol Accumulation In vivo, D ([1]; 49 mg/kg/day in diet) [%]","% Lowering Galactitol Accumulation In vivo, L ([1]; 11 mg/kg/day in diet)","% Lowering Galactitol Accumulation In vivo, L ([1]; 49 mg/kg/day in diet) [%]",% Inhibition In Vitro (aldose reductase; [2]) [%],% Inhibition In Vitro (aldose reductase; [3]) [%],% Inhibition In Vitro (aldose reductase; [4]) [%],"% Lowering Galactitol Accumulation In vivo, D ([1]; 28 mg/kg/day in diet) [%]","% Lowering Galactitol Accumulation In vivo, L ([1]; 28 mg/kg/day in diet) [%]"
"CN1C(=O)c2ccc(Cl)cc2C2(CC(=O)N2)C1=O (stereo not drawn) [Cl CH3, 6'-chloro-2'-methylspiro[azetidine-2,4'(1'H)-isoquinoline]-1',3',4(2'H)-trione]",70,82,NS,66,84,75,22,,
"CN1C(=O)c2ccc(Br)cc2C2(CC(=O)N2)C1=O (stereo not drawn) [Br CH3, 6'-bromo-2'-methylspiro[azetidine-2,4'(1'H)-isoquinoline]-1',3',4(2'H)-trione]",,,,,96,77,16,86,36
